US7402696B2, “Benzene compounds” (Ajinomoto Co., Inc., priority 2004, dated 2008)
Like-named read-outs stand apart in the source and are kept apart here. One block for each compound: values may come before it.

Target: T1, ACC (acetyl CoA carboxylase) purified from liver of male SD rat (Rattus norvegicus, UniProt P11497)
T1 construct: applied to a monomeric avidin sepharose column, and washed with buffer B. The ACC was eluted with buffer B containing 2 mM d-biotin; from tissue; host or cells: liver of male SD rat
Experiment: Measurement of ACC inhibition activity ([14C]-NaHCO3 incorporation)
Assay type: biochemical
Conditions: read-out: ACC Inhibition (%)
Protocol: A male SD rat was deprived of food for two days and then fed a high-sucrose diet (component) for two days. While anesthetized with ether, the descending vena cava was cut upon, the animal was bled, and the liver was rapidly recovered. In an ice-cooled buffer solution A (225 mM mannitol, 75 mM sucrose, 10 mM Tris-HCl (pH 7.5), 0.05 mM EDTA, 5 mM potassium citrate, 2.5 mM MgCl2, 10 mg/L pepstatin A, 10 mg/L leupeptin, 1 mM PMSF), the liver was homogenized with a polytone homogenizer. A quantity of buffer A nine times the weight of the liver was added, the mixture was centrifuged for 10 minutes at 1,000 g, the supernatant was recovered, and the supernatant was centrifuged for another 10 minutes at 17,000 g.
Ammonium sulfate was added to 35 percent saturation to the obtained supernatant. The mixture was stirred for 45 minutes and then centrifuged for 10 minutes at 17,000 g. Buffer solution B (100 mM Tris-HCl (pH 7.5), 500 mM NaCl, 1 mM EDTA, 0.1 mM DTT, 10 percent glycerol, 10 mg/L pepstatin A, 10 mg/L leupeptin, 0.5 mM PMSF) was added to the obtained precipitate and dissolved. The solution was then centrifuged for 20 minutes at 40,000 g. The supernatant was dialyzed overnight against buffer C (100 mM Tris-HCl (pH 7.5), 500 mM NaCl, 1 mM EDTA, 0.1 mM DTT, 5 percent glycerol).
The dialyzed supernatant was passed through a […], applied to a monomeric avidin sepharose column, and washed with buffer B. The ACC was eluted with buffer B containing 2 mM d-biotin.
(2 Measurement of ACC Inhibition Activity)
The compounds synthesized in the above-described embodiments were dissolved in DMSO and charged to glass vials. 250 μL of ACC-containing reaction solution (40 mM Tris-HCl (pH 7.5), 40 mM MgCl2, 40 mM sodium citrate, and 2 mM DTT) was added. The mixture was heated for 30 minutes at 37° C. in a thermostatic chamber and then cooled with ice. To reaction solution 1 was added 250 μL of reaction solution 2 containing [14C]—NaHCO3 (40 mM Tris-HCl (pH 7.5), 2 mM DTT, 8 mM ATP, 0.5 mM acetyl CoA) and the mixture was heated for 10 minutes at 37° C. 100 μL of 1N HCl was added to stop the reaction. Water in the reaction solution was removed with a centrifugal evaporator, a scintillator was added, the solid component was dissolved, and the 14C radioactivity was measured with a liquid scintillation counter. The ACC inhibition activity of each compound was calculated from the following equation and converted to the ACC inhibition activity rate (%) at 1 μM.
ACC inhibition rate (%)=(1−(a−c)/(b−c))×100 a. Radioactivity when test drug added b: Radioactivity when test drug not added c: Blank* *Reaction solution 1 to which 100 μL of 1N HCl was added before mixing reaction solution 1 and reaction solution 2

[1] = ACC inhibition activity rate at 1 μM, Table 4-IV, Mode 4 benzenediamine compounds (numbers = x-IV)
[2] = ACC inhibition activity rate at 1 μM, Table 3-I, Mode 1 quinoline compounds (numbers = x-I)
[3] = ACC inhibition activity rate at 1 μM, Table 4-A, further compounds of Modes 2 and 3
[4] = ACC inhibition activity rate at 1 μM, Table 2-III, Mode 3 acetylene/oxadiazole/thiazole compounds (numbers = x-III)
[5] = ACC inhibition activity rate at 1 μM, Table 3-II, Mode 2 benzimidazole compounds (numbers = x-II)

Compound: CC(C)CCN(C)c1ccc(C(=O)NC(CC(=O)NS(=O)(=O)c2ccccc2)c2ccccc2)cc1N(C)Cc1ccccc1 (stereo not drawn) [compound 121]
inhibition at 1 µM [1]: 90%

Compound: CC(C)CCN(C)c1ccc(-c2noc(-c3cccc(C(=O)NS(=O)(=O)c4cccc(C(=O)O)c4)c3)n2)cc1N(C)Cc1ccc(OCCO)cc1 [Compound 139-IV]
inhibition at 1 µM [1]: 100%

Compound: CC(C)c1ccc(S(=O)(=O)NC(=O)C[C@H](NC(=O)c2ccc3nc(-c4cc(C(F)(F)F)cc(C(F)(F)F)c4)ccc3c2)C2CCCCC2)cc1 [compound 50]
inhibition at 1 µM [2]: 87%

Compound: Cc1ccccc1S(=O)(=O)NC(=O)c1cccc(-c2nc(-c3ccc(N(C)CCC(C)C)c(NCc4ccccc4[N+](=O)[O-])c3)no2)c1 [compound 129]
inhibition at 1 µM [1]: 100%

Compound: O=C(O)c1ccc(S(=O)(=O)NC(=O)c2cccc(-c3nc(-c4ccc(-c5csc(-c6ccccc6)n5)cc4)no3)c2)cc1 [Compound 144-III]
inhibition at 1 µM [3]: 97%

Compound: CC(C)CCN(C)c1ccc(C(=O)NC(CC(=O)NS(=O)(=O)c2cn(C)cn2)C2CCCCC2)cc1NCCc1ccccc1 (stereo not drawn) [Compound 162-IV]
inhibition at 1 µM [1]: 85%

Compound: CC(C)c1ccc(S(=O)(=O)NC(=O)c2ccc(-c3nc(-c4ccc(-c5csc(-c6ccc(C(F)(F)F)cc6)n5)cc4)no3)cc2)cc1 [compound 107]
inhibition at 1 µM [4]: 100%

Compound: Cc1ccccc1S(=O)(=O)NC(=O)[C@@H]1CCCC[C@@H]1NC(=O)c1ccc(N(C)CCC(C)C)c(NCc2ccccc2)c1 [Compound 146-IV]
inhibition at 1 µM [1]: 72%

Compound: CC(C)CCN(C)c1ccc(C(=O)NC(CC(=O)NS(=O)(=O)c2ccccc2)C2CCCCC2)cc1NCC1CCCCC1 (stereo not drawn) [compound 55]
inhibition at 1 µM [1]: 90%

Compound: CCCCS(=O)(=O)NC(=O)[C@@H]1C[C@H]2C[C@H](C2(C)C)[C@@]1(C)NC(=O)c1ccc2nc(-c3cc(C(F)(F)F)cc(C(F)(F)F)c3)ccc2c1 [compound 59]
inhibition at 1 µM [2]: 74%

Compound: CC(C)CCN(C)c1ccc(-c2noc(-c3cccc(C(=O)NS(=O)(=O)c4ccccc4)c3)n2)cc1NC(C)c1ccccc1 (stereo not drawn) [compound 106]
inhibition at 1 µM [1]: 100%

Compound: CC(C)CCN(C)c1ccc(-c2noc(-c3cccc(C(=O)NS(=O)(=O)c4ccccc4)c3)n2)cc1NC(=O)c1ccccc1 [compound 40]
inhibition at 1 µM [1]: 87%

Compound: COC(=O)c1cccc(S(=O)(=O)NC(=O)c2cccc(-c3nc(-c4ccc(N(C)CCC(C)C)c(NCc5ccc(OCCO)cc5)c4)no3)c2)c1 [Compound 133-IV]
inhibition at 1 µM [1]: 99%

Compound: CC(C)CCN(C)c1ccc(-c2noc(-c3cccc(C(=O)NS(=O)(=O)c4ccccc4)c3)n2)cc1N(CCCc1ccccc1)CCCc1ccccc1 [compound 56]
inhibition at 1 µM [1]: 100%

Compound: CCOP(=O)(/C=C/c1ccc(CNc2cc(-c3noc(-c4cccc(C(=O)NS(=O)(=O)c5ccccc5C)c4)n3)ccc2N(C)CCC(C)C)cc1)OCC [Compound 140-IV]
inhibition at 1 µM: 100%

Compound: CC(C)CCN(C)c1ccc(-c2noc(-c3cccc(C(=O)NS(=O)(=O)c4ccccc4)c3)n2)cc1NC(=O)c1cccs1 [compound 43]
inhibition at 1 µM [1]: 83%

Compound: CC(C)CCN(C)c1ccc(C(=O)NC(CC(=O)NS(=O)(=O)c2cn(C)cn2)C2CCCCC2)cc1NCc1ccccc1 (stereo not drawn) [Compound 147-IV]
inhibition at 1 µM [1]: 68%

Compound: Cc1ccccc1S(=O)(=O)NC(=O)CC(NC(=O)c1ccc(N(C)CCC(C)C)c(NCC2CCCC2)c1)C1CCCCC1 (stereo not drawn) [compound 126]
inhibition at 1 µM [1]: 91%

Compound: CC(C)CCN(C)c1ccc(C(=O)NC(CC(=O)NS(=O)(=O)c2ccc(C(=O)O)cc2)C2CCCCC2)cc1NCc1ccccc1 (stereo not drawn) [Compound 138-IV]
inhibition at 1 µM [1]: 63%

Continued, values first:

inhibition at 1 µM [2]: 90%
Compound: CCCCCC(=O)NS(=O)(=O)c1ccccc1NC(=O)c1ccc2nc(-c3cc(C(F)(F)F)ccc3F)ccc2c1 [compound 107]

inhibition at 1 µM [3]: 84%
Compound: O=C(NS(=O)(=O)c1cccc(-c2nc(-c3ccc(-c4csc(-c5ccccc5)n4)cc3)no2)c1)c1cccnc1 [Compound 145-III]

inhibition at 1 µM [4]: 61%
Compound: O=C(O)c1ccccc1C(=O)Nc1ccc(C#Cc2cccc(C(F)(F)F)c2)cc1 [compound 10]

inhibition at 1 µM [3]: 96%
Compound: Cn1cnc(S(=O)(=O)NC(=O)c2cccc(-c3nc(-c4ccc(-c5csc(-c6ccccc6)n5)cc4)no3)c2)c1 [Compound 139-III]

inhibition at 1 µM [1]: 59%
Compound: O=C(NS(=O)(=O)c1ccccc1)c1cccc(-c2noc(-c3ccc(NC4CC4)c([N+](=O)[O-])c3)n2)c1 [compound 52]

inhibition at 1 µM [1]: 67%
Compound: CCCCCC(=O)NS(=O)(=O)c1ccccc1NC(=O)c1ccc(Nc2ccc(C(F)(F)F)cc2)c(NC(=O)c2cccs2)c1 [compound 34]

inhibition at 1 µM [4]: 52%
Compound: O=C(O)c1ccccc1C(=O)Nc1ccc(-c2csc(-c3cc(C(F)(F)F)ccc3F)n2)cc1 [compound 99]

inhibition at 1 µM [1]: 92%
Compound: CCCCCC(=O)NS(=O)(=O)c1ccccc1NC(=O)c1ccc(Nc2ccc(C(F)(F)F)cc2)c(NC(=O)c2ccc(C(F)(F)F)cc2)c1 [compound 28]

inhibition at 1 µM [5]: 54%
Compound: CCCCCC(=O)NS(=O)(=O)c1ccccc1NC(=O)c1ccc2nc(-c3cccc(C(F)(F)F)c3)n(-c3ccccc3)c2c1 [compound 4]

inhibition at 1 µM [5]: 92%
Compound: CCCCCC(=O)NS(=O)(=O)c1ccccc1NC(=O)c1ccc2c(c1)nc(-c1cc(C(F)(F)F)cc(C(F)(F)F)c1)n2-c1ccc(C(F)(F)F)cc1 [compound 2]

inhibition at 1 µM [4]: 54%
Compound: O=C(O)c1ccc(-c2csc(-c3ccc(C#Cc4cccc(C(F)(F)F)c4)cc3)n2)cc1 [compound 36]

inhibition at 1 µM [4]: 64%
Compound: O=C(O)CNC(=O)Nc1ccc(C#Cc2cccc(C(F)(F)F)c2)cc1 [compound 65]

inhibition at 1 µM [1]: 61%
Compound: CCCCCC(=O)NS(=O)(=O)c1ccccc1NC(=O)c1ccc(Nc2ccc(C(F)(F)F)cc2)c(NC(=O)c2ccncc2)c1 [compound 33]

inhibition at 1 µM [4]: 60%
Compound: CC(C)c1ccc(S(=O)(=O)NC(=O)c2ccc3c(c2)CN(c2cccc(-c4csc(-c5ccccc5)n4)c2)C3)cc1 [compound 118]

inhibition at 1 µM [1]: 72%
Compound: CC(C)CCN(C)c1ccc(-c2noc(-c3cccc(C(=O)NS(=O)(=O)c4ccccc4)c3)n2)cc1NCc1cccc(C(=O)O)c1 [compound 100]

inhibition at 1 µM [2]: 72%
Compound: CCCCCC(=O)NS(=O)(=O)c1ccccc1NC(=O)c1ccc2nc(-c3cc(C(F)(F)F)cc(C(F)(F)F)c3)ccc2c1 [compound 7]

inhibition at 1 µM [5]: 57%
Compound: O=C(O)c1cccc(-c2noc(-c3ccc4c(c3)nc(-c3ccccc3)n4-c3ccc(C(F)(F)F)cc3)n2)c1 [compound 8]

inhibition at 1 µM [4]: 60%
Compound: O=C(O)c1ccccc1S(=O)(=O)Nc1ccc(C#Cc2cccc(C(F)(F)F)c2)cc1 [compound 9]

inhibition at 1 µM [3]: 83%
Compound: O=C(NS(=O)(=O)c1cccc(-c2nc(-c3ccc(-c4csc(-c5ccccc5)n4)cc3)no2)c1)c1cccs1 [Compound 143-III]

inhibition at 1 µM [1]: 76%
Compound: CC(C)CCN(C)c1ccc(-c2nc(-c3cccc(C(=O)NS(=O)(=O)c4ccccc4)c3)no2)cc1[N+](=O)[O-] [compound 51]

inhibition at 1 µM [1]: 92%
Compound: Cc1ccccc1S(=O)(=O)NC(=O)c1cccc(-c2nc(-c3ccc(N(C)CCC(C)C)c(N4Cc5ccccc5C4=O)c3)no2)c1 [compound 127]

inhibition at 1 µM [5]: 50%
Compound: CCCCCC(=O)NS(=O)(=O)c1ccccc1NC(=O)c1ccc2c(c1)nc(-c1cc(C(F)(F)F)cc(C(F)(F)F)c1)n2CCC(C)C [compound 1]

inhibition at 1 µM [4]: 58%
Compound: O=C(O)c1ccc(-c2nc(-c3ccc(C#Cc4cccc(C(F)(F)F)c4)cc3)no2)cc1 [compound 28]

inhibition at 1 µM [4]: 60%
Compound: O=C1c2ccccc2C(=O)N1c1cccc(C#Cc2cccc(C(F)(F)F)c2)c1 [compound 18]

inhibition at 1 µM [1]: 72%
Compound: CCCCCC(=O)NS(=O)(=O)c1ccccc1NC(=O)c1ccc(Nc2ccc(C(F)(F)F)cc2)c(NC(=O)C2CCCCC2)c1 [compound 31]

inhibition at 1 µM [2]: 45%
Compound: CCCCS(=O)(=O)NC(=O)CC(NC(=O)c1ccc2nc(-c3cc(C(F)(F)F)cc(C(F)(F)F)c3)ccc2c1)c1cccc(N)c1 (stereo not drawn) [compound 102]
